In patent publication US20120071496A1, “Aminopyrimidinamides As Pest Control Agents” (Bayer CropScience AG, priority 2009, published 2012):

Columns and labels:
logP (HCOOH) = type: physicochemical; details: for IogP (HCOOH): table after Table 9
[1] = system: Spodoptera litura third instar larvae; experiment: Test against tobacco cutworm (Spodoptera litura) larvae; type: in vivo; details: active compound concentration 100 ppm; immersed sweet potato leaves; after 7 days
Experimental: Unless not mentioned otherwise, the test solutions were prepared as follows:
Containing as solvent: Dimethylformamide, 3 parts by weight; and as emulsifier: Polyoxyethylene alkyl phenyl ether, 1 part by weight
Test Against Tobacco Cutworm (Spodoptera litura) Larvae
Leaves of sweet potato were immersed in the test solution at the appropriate concentration, and the leaves were dried in air. The leaves were then placed in a petri dish having a diameter of 9 cm, and ten Spodoptera litura at third instar larvae were released therein. The petri dishes were placed in a temperature-controlled chamber at 25° C. After 2 days and 4 days more sweet potato leaves were added. After 7 days, the number of dead larvae was counted to calculate the insecticidal activity. An insecticidal activity of 100% means that all larvae were killed, whereas an insecticidal activity of 0% means that no larva was killed.

| Compound | logP (HCOOH) (logP (HCOOH); Table 2) | insecticidal activity [1] [%] | further results |
| --- | --- | --- | --- |
| O=C(Nc1c(NC2CC2)ncnc1-c1ccc(OC(F)(F)F)cc1)c1cccnc1OCC(F)(F)F [1-169] | 2.84 | – | – |
| O=C(Nc1c(NC2CC2)ncnc1-c1ccc(F)cc1)c1cccnc1C(F)(F)F [1-170] | 1.59 | – | – |
| O=C(Nc1c(NC2CC2)ncnc1-c1ccc(Cl)cc1)c1cccnc1C(F)(F)F [1-178] | 1.76 | – | – |
| O=C(Nc1c(NC2CC2)ncnc1-c1ccc(Cl)cc1)c1cccnc1C(F)F [1-179] | 1.58 | – | – |
| CCc1ncccc1C(=O)Nc1c(NC2CC2)ncnc1-c1ccc(F)cc1C [1-180] | 1.10 | – | – |
| CCc1ncccc1C(=O)Nc1c(NC2CC2)ncnc1-c1ccc(C#N)cc1C [1-181] | 1.22 | – | – |
| CCc1ncccc1C(=O)Nc1c(NC2CC2)ncnc1-c1ccccc1C [1-182] | 0.94 | – | – |
| CCc1ncccc1C(=O)Nc1c(NC2CC2)ncnc1-c1ccc(Cl)cc1F [1-187] | 1.46 | – | – |
| CCc1ncccc1C(=O)Nc1c(NC2CC2)ncnc1-c1ccc(Cl)cc1C [1-188] | 1.40 | – | – |
| CCc1ncccc1C(=O)Nc1c(NC2CC2)ncnc1-c1ccc(C(F)(F)F)cc1C [1-189] | 1.77 | – | – |
| CCc1nc(C(F)(F)F)ccc1C(=O)Nc1c(NC2CC2)ncnc1-c1ccc(F)cc1 [1-196] | 2.43 | – | – |
| O=C(Nc1c(NC2CC2)ncnc1-c1ccc(Cl)cc1)c1cc(Cl)cnc1C1CC1 [1-197] | 2.52 | – | – |
| O=C(Nc1c(NC2CC2)ncnc1-c1ccc(F)cc1)c1cc(Cl)cnc1C1CC1 [1-198] | 2.16 | – | – |
| Cc1nc(C(F)(F)F)ccc1C(=O)Nc1c(NC2CC2)ncnc1-c1ccc(Cl)cc1 [1-199] | 2.35 | – | – |
| CCc1ncccc1C(=O)Nc1c(NC2CCC2)ncnc1-c1ccc(F)cc1 [1-224] | 1.36 | – | – |
| CCc1ncccc1C(=O)Nc1c(NC2CC2C)ncnc1-c1ccc(Cl)cc1F (centres unmarked) [1-230] | 1.72 | – | – |
| CCc1ncccc1C(=O)Nc1c(NC2CC2)ncnc1-c1ccc(C(F)(C(F)(F)F)C(F)(F)F)cc1 [1-232] | – | 100 | – |
| O=C(Nc1c(NC2CC2)ncnc1-c1ccccc1)c1cccnc1C1CC1 [1-234] | – | 100 | – |
| O=C(Nc1c(NC2CC2)ncnc1-c1ccc(F)cc1)c1cccnc1C1CC1 [1-235] | – | 100 | – |
| O=C(Nc1c(NC2CC2)ncnc1-c1ccc(Cl)cc1)c1cccnc1C1CC1 [1-236] | – | 100 | – |
| CCCc1ncccc1C(=O)Nc1c(NC2CC2)ncnc1-c1ccccc1 [1-237] | – | 100 | – |
| CCCc1ncccc1C(=O)Nc1c(NC2CC2)ncnc1-c1ccc(F)cc1 [1-238] | – | 100 | – |
| CCCc1ncccc1C(=O)Nc1c(NC2CC2)ncnc1-c1ccc(Cl)cc1 [1-239] | – | 100 | – |
| O=C(Nc1c(NC2CC2)ncnc1-c1ccc(F)cc1F)c1cccnc1C1CC1 [1-240] | – | 100 | – |
| O=C(Nc1c(NC2CC2)ncnc1-c1ccc(Cl)cc1)c1cccnc1C(F)(F)C(F)(F)F [1-241] | – | 100 | – |
| N#Cc1ccc(-c2ncnc(NC3CC3)c2NC(=O)c2cccnc2C2CC2)cc1 [1-242] | – | 100 | – |
| O=C(Nc1c(NC2CC2)ncnc1-c1ccc(OC(F)(F)F)cc1)c1cccnc1C1CC1 [1-243] | – | 100 | – |

| Compound | logP (HCOOH) (logP (HCOOH); Table 2) | insecticidal activity [1] [%] | further results |
| --- | --- | --- | --- |
| CCCc1ncccc1C(=O)Nc1c(NC2CC2)ncnc1-c1ccc(Cl)cc1Cl [1-244] | – | 100 | – |
| CCCc1ncccc1C(=O)Nc1c(NC2CC2)ncnc1-c1ccc(F)cc1F [1-245] | – | 100 | – |
| CCCc1ncccc1C(=O)Nc1c(NC2CC2)ncnc1-c1ccc(C#N)cc1 [1-246] | – | 100 | – |
| CCc1ncccc1C(=O)Nc1c(NC2CC2)ncnc1-c1ccc(Cn2nc(C(F)(F)C(F)(F)F)cc2C(F)(F)F)cc1 [1-247] | – | 100 | – |
| O=C(Nc1c(NC2CC2)ncnc1-c1ccc(Cn2nc(C(F)(F)F)cc2C(F)(F)F)cc1)c1cccnc1C1CC1 [1-252] | – | 100 | – |
| O=C(Nc1c(NC2CC2)ncnc1-c1ccc(Cn2nc(C(F)(F)C(F)(F)F)cc2C(F)(F)F)cc1)c1cccnc1C1CC1 [1-253] | – | 100 | – |
| CCc1ccccc1C(=O)Nc1c(NC2CC2)ncnc1-c1ccc(OC(F)(F)F)cc1 [1-257] | – | 100 | – |
| O=C(Nc1c(NC2CC2)ncnc1-c1ccc(Cn2nc(C(F)(F)F)nc2C(F)(F)F)cc1)c1cccnc1C1CC1 [1-259] | – | 100 | – |
| O=C(Nc1c(NC2CC2)ncnc1-c1ccc(F)cc1)c1cccnc1C(=O)NC1CC1 [1-262] | 1.45 | – | – |
| O=C(Nc1c(NC2CC2)ncnc1-c1ccc(Cl)cc1)c1c(F)cccc1Cl [1-263] | 2.20 | – | – |
| CCc1ccccc1C(=O)Nc1c(NC2CC2)ncnc1-c1ccc(Cn2nc(C(F)(F)F)nc2C(F)(F)F)cc1 [1-265] | – | 100 | – |
| CCc1ncccc1C(=O)Nc1c(NC2CC2)ncnc1-c1ccc(Cn2ccc(C(F)(F)C(F)(F)F)n2)cc1 [1-266] | – | 100 | – |
| CCc1ncccc1C(=O)Nc1c(NC2CC2)ncnc1-c1ccc(Cn2ccc(C(F)(F)C(F)(F)C(F)(F)F)n2)cc1 [1-267] | – | 100 | – |
| CCc1ncccc1C(=O)Nc1c(NC2CC2)ncnc1-c1ccc(Cn2nc(C(F)(F)F)cc2C(F)(F)F)cc1 [1-268] | – | 100 | – |
| CCc1ncccc1C(=O)Nc1c(NC2CC2)ncnc1-c1ccc(Cn2nc(C(F)(F)C(F)(F)F)cc2C(F)(F)C(F)(F)F)cc1 [1-269] | – | 100 | – |
| CCc1ncccc1C(=O)Nc1c(NC2CC2)ncnc1-c1ccc(Cn2cnc(C(F)(F)F)n2)cc1 [1-273] | 1.11 | – | – |
| CCc1ncccc1C(=O)Nc1c(NC2CC2)nc(C)nc1-c1ccccc1 [1-275] | 0.76 | – | – |
| CCc1ncccc1C(=O)Nc1c(NC2CC2)nc(C)nc1-c1ccc(F)cc1 [1-276] | 0.88 | – | – |
| CCc1ncccc1C(=O)Nc1c(NC2CC2)nc(C)nc1-c1ccc(Cl)cc1Cl [1-277] | 1.34 | – | – |
| CCc1ncccc1C(=O)Nc1c(NC2CC2)nc(C)nc1-c1ccc(F)cc1F [1-278] | 1 | – | – |
| CCc1ncccc1C(=O)Nc1c(NC2CC2)nc(C)nc1-c1ccc(OC(F)(F)F)cc1 [1-279] | 1.44 | – | – |
| CCc1ccccc1C(=O)Nc1c(NC2CC2)ncnc1-c1ccc(Cn2cnc(C(F)(F)F)n2)cc1 [1-286] | – | 100 | – |
| O=C(Nc1c(NC2CC2)ncnc1-c1ccc(Cn2cnc(C(F)(F)F)n2)cc1)c1cccnc1C1CC1 [1-287] | 1.45 | – | – |
| CCc1ncccc1C(=O)Nc1c(NC2CC2)nc(SC)nc1-c1ccc(Cn2cnc(C(F)(F)C(F)(F)F)n2)cc1 [1-290] | 2.47 | – | – |
| CCc1ncccc1C(=O)Nc1c(NC(C)C(F)(F)F)ncnc1-c1ccc(F)cc1 (centres unmarked) [1-299] | 1.85 | – | – |
| O=C(Nc1c(NC2CC2)ncnc1-c1ccc(F)cc1)c1cccnc1C(F)C(F)(F)F (centres unmarked) [1-308] | 1.83 | – | – |
| CCc1ncccc1C(=O)Nc1c(NC2CC2)ncnc1-c1ccc(COc2ccc(C(F)(F)F)cn2)cc1 [1-309] | 1.77 | – | – |

| Compound | logP (HCOOH) (logP (HCOOH); Table 2) | insecticidal activity [1] [%] | further results |
| --- | --- | --- | --- |
| CCc1ncccc1C(=O)Nc1c(NC2CC2)ncnc1-c1ccc(Oc2ncccc2C(F)(F)F)cc1 [1-311] | – | 100 | – |
| CCc1ncccc1C(=O)Nc1c(NC2CC2)ncnc1-c1ccc(Oc2cccc(C(F)(F)F)n2)cc1 [1-312] | – | 100 | – |
| CCc1ncccc1C(=O)Nc1c(NC2CC2)nc(C(F)(F)F)nc1-c1ccc(F)cc1 [1-313] | – | 100 | – |
| CCc1ncccc1C(=O)Nc1c(NC2CC2)nc(C(F)(F)F)nc1-c1ccc(F)cc1F [1-314] | – | 100 | – |
| CCc1nccc(Cl)c1C(=O)Nc1c(NC2CC2)ncnc1-c1ccc(F)cc1 [1-315] | 2.18 | – | – |
| CCc1nccc(Cl)c1C(=O)Nc1c(NC2CC2)ncnc1-c1ccc(Cl)cc1 [1-316] | 2.54 | – | – |
| CCc1ncccc1C(=O)Nc1c(NC2CC2)ncnc1-c1ccc(Oc2nc(C(F)(F)F)cc(C(F)(F)C(F)(F)F)n2)cc1 [1-317] | – | 100 | – |
| CCc1ncccc1C(=O)Nc1c(NC2CC2)ncnc1-c1ccc(Cc2nc(C(F)(F)C(F)(F)C(F)(F)F)n(C)n2)cc1 [1-318] | – | 100 | – |
| CCc1ncccc1C(=O)Nc1c(NC2CC2)ncnc1-c1ccc(Cc2n[nH]c(C(F)(F)C(F)(F)C(F)(F)F)n2)cc1 [1-319] | – | 100 | – |
| CCc1cccc(C)c1C(=O)Nc1c(NC2CC2)ncnc1-c1ccc(F)cc1 [1-320] | 2.39 | – | – |
| CCc1cccc(Cl)c1C(=O)Nc1c(NC2CC2)ncnc1-c1ccc(C#N)cc1 [1-321] | 2.37 | – | – |
| O=C(Nc1c(NC2CC2)nc(C(F)(F)F)nc1-c1ccc(F)cc1)c1cccnc1CC(F)(F)F [1-324] | – | 100 | – |
| O=C(Nc1c(NC2CC2)nc(Cl)nc1-c1ccc(F)cc1)c1cccnc1CC(F)(F)F [1-325] | – | 100 | – |
| CCc1ncccc1C(=O)Nc1c(NC2CC2)nc(Cl)nc1-c1ccc(F)cc1 [1-326] | – | 100 | – |
| CCc1ncccc1C(=O)Nc1c(Br)ncnc1NC1CC1 [3-3] | – | – | logP (HCOOH) (logP (HCOOH); Table 4): 0.84 |
| O=C(Nc1c(Cl)ncnc1NC1CC1)c1cccnc1OCC(F)(F)F [3-4] | – | – | logP (HCOOH) (logP (HCOOH); Table 4): 2.25 |
| O=C(Nc1c(Cl)ncnc1NC1CC1)c1cccnc1CC(F)(F)F [3-5] | – | – | logP (HCOOH) (logP (HCOOH); Table 4): 1.61 |
| CCc1ncccc1C(=O)Nc1c(Cl)ncnc1NC1CC1C (centres unmarked) [3-7] | – | – | logP (HCOOH) (logP (HCOOH); Table 4): 1.26 |
| CCc1ncccc1C(=O)Nc1c(CC)ncnc1NC1CC1 [3-8] | – | – | logP (HCOOH) (logP (HCOOH); Table 4): 1.74 |
| CCc1ncccc1C(=O)Nc1c(Cl)nc(C)nc1NC1CC1 [3-9] | – | – | logP (HCOOH) (logP (HCOOH); Table 4): 1.41 |
| CCc1ncccc1C(=O)Nc1c(Cl)ncnc1Nc1ccc(F)cc1 [5-2] | – | 100 | – |
| CCc1ncccc1C(=O)Nc1c(Cl)ncnc1Nc1ccc(C(F)(F)F)cc1 [5-5, N-(4-Chloro-6-{[4-(trifluoromethyl)phenyl]amino}pyrimidin-5-yl)-2-ethylnicotinamide] | – | – | chromatographic logP (logP (HCOOH); HCOOH (formic acid), Table 6): 2.12 |
| O=C(Nc1c(NC2CC2)ncnc1-c1ccc(F)cc1)c1ccnn1-c1ccc(F)cc1 [9-1] | – | – | IogP (HCOOH) (logP (HCOOH)): 1.70 |
| O=C(Nc1c(NC2CC2)ncnc1-c1ccc(F)cc1)c1ccnn1-c1ccc(Cl)cc1 [9-2] | – | – | IogP (HCOOH) (logP (HCOOH)): 2.02 |
| O=C(Nc1c(NC2CC2)ncnc1-c1ccc(F)cc1)c1ccnn1-c1ccccc1Cl [9-3] | – | – | IogP (HCOOH) (logP (HCOOH)): 1.76 |
| O=C(Nc1c(NC2CC2)ncnc1-c1ccc(Cl)cc1)c1ccnn1-c1ccccc1Cl [9-4] | – | – | IogP (HCOOH) (logP (HCOOH)): 2.05 |
